Experimental findings from US9708314B2, “Heterocyclic amide compound” (NISSAN CHEMICAL INDUSTRIES, LTD., priority 2013, dated 2017) are described below.

What all share (type): in vivo
Data set [1] concerns Echinochloa crus-galli var. crus-galli. Description: Test Example 3: herbicidal effect by application to foliage (Wagner pot, water depth 0.1-0.5 cm). The conditions noted are these: Nineteenth Table, application to foliage. An outline of the steps: (§1)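 Alluvial soil in 1/10000 are Wagner pots, sown and grown 14 days in a 25–30 °C greenhouse. An emulsifiable concentrate diluted in water to the set dose (g/ha) was sprayed on stems and leaves. Effect scored three weeks later on a 0–5 scale: 5 = ≥90% herbicidal ratio, 0 = ≤5%.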

For data set [2], the system named is Cyperus difformis. The description is as above. Conditions: Nineteenth Table, application to foliage. An outline of the steps: as §1
Data set [3] deals with Leptochloa chinensis. Described as above. Conditions: Nineteenth Table, application to foliage. Put shortly: as §1
Data set [4] has as its system Scirpus juncoides. Description: Test Example 2: herbicidal activity, application during weed generation in submerged conditions. Conditions: Eighteenth Table; application herbicide amount 320 g/ha. An outline of the steps:
(§2)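 Seeds were sown together in alluvial soil kept under 4 cm of water and grown at 25 °C to 30 °C. Once plants reached the one- to two-leaf stage, the diluted emulsion was applied to the water surface at a predetermined g/ha amount, and effects were rated 0–5 after three weeks.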

Data set [5] relates to Echinochloa oryzacola Vasing. The description is as above. The conditions noted are these: Eighteenth Table; application herbicide amount 320 g/ha. Put shortly:
as §2

The test system of data set [6] is Monochoria vaginalis. Described as above. Conditions: Eighteenth Table; application herbicide amount 320 g/ha. An outline of the steps:
as §2

Data set [7] concerns directly sowed Oryza sativa. Nature of the data set: Test Example 3: effect on crop by application to foliage (Wagner pot, water depth 0.1-0.5 cm). Conditions: Nineteenth Table, application to foliage. Put shortly:
as §1

Data set [8] relates to transplanted Oryza sativa. Nature of the data set: Test Example 1: effect on crop, application before weed generation in submerged conditions. Conditions: Seventeenth Table; for a: transplanted Oryza sativa (effect on crop grade): Application herbicide amount 320 g/ha; for a (transplanted Oryza sativa) effect on crop grade: application herbicide amount 320 g/ha. Put shortly: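 Water-diluted emulsion formulation is applied onto flood water (4 cm deep) covering alluvial soil on the day weed seeds are sown, after transplanting 2.5 leaf stage rice. Rates are expressed per hectare. Injury or control is graded 0–5 three weeks later.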

The mark [9] stands for this setting: application herbicide amount 320 g/ha.
Where [10] appears, read: application herbicide amount 200 g/ha.

Turning to `COCCNc1nnc2c(C(=O)Nc3nnnn3C)ccc(C(F)(F)F)n12` [2-074], the “H (herbicidal effect grade)” value in data set [1] (setting [9]) is recorded as 5 (Herbicidal ratio of 90% or more (almost completely withered)). Further, the “E (herbicidal effect grade)” value in data set [2] (setting [9]) is 4 (Herbicidal ratio of 70% or more and less than 90%). Also, in data set [3] (setting [9]), the “D (herbicidal effect grade)” value was 5 (Herbicidal ratio of 90% or more (almost completely withered)). In data set [4], the “B (Scirpus juncoides) herbicidal ratio grade” value was 4 (Herbicidal ratio of 70% or more and less than 90%). Also, the “A (Echinochloa oryzicola Vasing.) herbicidal ratio grade” value in data set [5] is 4 (Herbicidal ratio of 70% or more and less than 90%). The “C (Monochoria vaginalis) herbicidal ratio grade” value in data set [6] is 3 (Herbicidal ratio of 40% or more and less than 70%). Moreover, in data set [7] (setting [9]), the “b (effect on crop grade)” value is listed as 5 (Herbicidal ratio of 90% or more (almost completely withered)). Besides, the “a: transplanted Oryza sativa (effect on crop grade)” value (from here on “a: transplanted Oryza sativa”) in data set [8] is 3 (Herbicidal ratio of 40% or more and less than 70%).

Take `Cn1nnnc1NC(=O)c1ccc(C(F)(F)F)n2c(CC[S+](C)[O-])nnc12` (centres unmarked) [2-058]: the “H (herbicidal effect grade)” value in data set [1] (setting [9]) is given as 5 (Herbicidal ratio of 90% or more (almost completely withered)). The “E (herbicidal effect grade)” value in data set [2] (setting [9]) is listed as 5 (Herbicidal ratio of 90% or more (almost completely withered)). For the same compound, the “D (herbicidal effect grade)” value in data set [3] (setting [9]) is recorded as 5 (Herbicidal ratio of 90% or more (almost completely withered)). Besides, the “B (Scirpus juncoides) herbicidal ratio grade” value in data set [4] was 4 (Herbicidal ratio of 70% or more and less than 90%). Moreover, the “A (Echinochloa oryzicola Vasing.) herbicidal ratio grade” value in data set [5] is 4 (Herbicidal ratio of 70% or more and less than 90%). Further, in data set [6], the “C (Monochoria vaginalis) herbicidal ratio grade” value was 4 (Herbicidal ratio of 70% or more and less than 90%). Also, the “b (effect on crop grade)” value in data set [7] (setting [9]) is reported as 5 (Herbicidal ratio of 90% or more (almost completely withered)). In addition, the “a: transplanted Oryza sativa” value in data set [8] is 5 (Herbicidal ratio of 90% or more (almost completely withered)).

As for `Cn1nnnc1NC(=O)c1ccc(C(F)(F)F)n2c(C[S+]([O-])CC(F)(F)F)nnc12` (centres unmarked) [2-035], the “H (herbicidal effect grade)” value in data set [1] (setting [9]) is given as 5 (Herbicidal ratio of 90% or more (almost completely withered)). The “E (herbicidal effect grade)” value in data set [2] (setting [9]) is 4 (Herbicidal ratio of 70% or more and less than 90%). Moreover, the “D (herbicidal effect grade)” value in data set [3] (setting [9]) is 5 (Herbicidal ratio of 90% or more (almost completely withered)). Further, the “B (Scirpus juncoides) herbicidal ratio grade” value in data set [4] is 2 (Herbicidal ratio of 20% or more and less than 40%). For the same compound, the “A (Echinochloa oryzicola Vasing.) herbicidal ratio grade” value in data set [5] is 2 (Herbicidal ratio of 20% or more and less than 40%). For the same compound, the “C (Monochoria vaginalis) herbicidal ratio grade” value in data set [6] was 3 (Herbicidal ratio of 40% or more and less than 70%). The “b (effect on crop grade)” value in data set [7] (setting [9]) was 5 (Herbicidal ratio of 90% or more (almost completely withered)). In addition, the “a: transplanted Oryza sativa” value in data set [8] is 4 (Herbicidal ratio of 70% or more and less than 90%).

As for `CCS(=O)(=O)c1nnc2c(C(=O)Nc3nnnn3C)ccc(C(F)(F)F)n12` [2-038], in data set [1] (setting [9]), the “H (herbicidal effect grade)” value is 5 (Herbicidal ratio of 90% or more (almost completely withered)). In addition, the “E (herbicidal effect grade)” value in data set [2] (setting [9]) is reported as 5 (Herbicidal ratio of 90% or more (almost completely withered)). Further, in data set [3] (setting [9]), the “D (herbicidal effect grade)” value is given as 5 (Herbicidal ratio of 90% or more (almost completely withered)). Also, the “B (Scirpus juncoides) herbicidal ratio grade” value in data set [4] was 4 (Herbicidal ratio of 70% or more and less than 90%). Also, the “A (Echinochloa oryzicola Vasing.) herbicidal ratio grade” value in data set [5] was 5 (Herbicidal ratio of 90% or more (almost completely withered)). In data set [6], the “C (Monochoria vaginalis) herbicidal ratio grade” value is listed as 5 (Herbicidal ratio of 90% or more (almost completely withered)). The “b (effect on crop grade)” value in data set [7] (setting [9]) is given as 5 (Herbicidal ratio of 90% or more (almost completely withered)). The “a: transplanted Oryza sativa” value in data set [8] was 4 (Herbicidal ratio of 70% or more and less than 90%).

Consider `Cn1nnnc1NC(=O)c1ccc(C(F)(F)F)n2c(=O)n(C)nc12` [6-002], for which the “H (herbicidal effect grade)” value in data set [1] (setting [9]) is 5 (Herbicidal ratio of 90% or more (almost completely withered)). The “E (herbicidal effect grade)” value in data set [2] (setting [9]) is 4 (Herbicidal ratio of 70% or more and less than 90%). Moreover, in data set [3] (setting [9]), the “D (herbicidal effect grade)” value is reported as 5 (Herbicidal ratio of 90% or more (almost completely withered)). In addition, the “B (Scirpus juncoides) herbicidal ratio grade” value in data set [4] was 2 (Herbicidal ratio of 20% or more and less than 40%). Besides, the “A (Echinochloa oryzicola Vasing.) herbicidal ratio grade” value in data set [5] is 3 (Herbicidal ratio of 40% or more and less than 70%). The “C (Monochoria vaginalis) herbicidal ratio grade” value in data set [6] is 3 (Herbicidal ratio of 40% or more and less than 70%). Also, the “b (effect on crop grade)” value in data set [7] (setting [9]) is listed as 0 (Herbicidal ratio of 5% or less (almost no effect)). Further, in data set [8], the “a (transplanted Oryza sativa) effect on crop grade” value is reported as 0 (Herbicidal ratio of 5% or less (almost no effect)).

For the compound `Cn1nnnc1NC(=O)c1ccc(C(F)(F)F)n2c(-c3ccc(F)cc3)nnc12` [2-043], the “H (herbicidal effect grade)” value in data set [1] (setting [9]) was 5 (Herbicidal ratio of 90% or more (almost completely withered)). For the same compound, the “E (herbicidal effect grade)” value in data set [2] (setting [9]) is listed as 5 (Herbicidal ratio of 90% or more (almost completely withered)). In data set [3] (setting [9]), the “D (herbicidal effect grade)” value is given as 5 (Herbicidal ratio of 90% or more (almost completely withered)). Moreover, the “B (Scirpus juncoides) herbicidal ratio grade” value in data set [4] is 4 (Herbicidal ratio of 70% or more and less than 90%). Besides, the “A (Echinochloa oryzicola Vasing.) herbicidal ratio grade” value in data set [5] was 5 (Herbicidal ratio of 90% or more (almost completely withered)). Moreover, the “C (Monochoria vaginalis) herbicidal ratio grade” value in data set [6] was 4 (Herbicidal ratio of 70% or more and less than 90%). Besides, the “b (effect on crop grade)” value in data set [7] (setting [9]) is recorded as 5 (Herbicidal ratio of 90% or more (almost completely withered)). Moreover, the “a: transplanted Oryza sativa” value in data set [8] was 4 (Herbicidal ratio of 70% or more and less than 90%).

On to `COCCn1nnnc1NC(=O)c1ccc(C(F)(F)F)n2c(C(C)C)nnc12` [2-041], for which the “H (herbicidal effect grade)” value in data set [1] (setting [9]) is 5 (Herbicidal ratio of 90% or more (almost completely withered)). Further, in data set [2] (setting [9]), the “E (herbicidal effect grade)” value is 5 (Herbicidal ratio of 90% or more (almost completely withered)). Further, the “D (herbicidal effect grade)” value in data set [3] (setting [9]) is 5 (Herbicidal ratio of 90% or more (almost completely withered)). Further, the “B (Scirpus juncoides) herbicidal ratio grade” value in data set [4] was 4 (Herbicidal ratio of 70% or more and less than 90%). The “A (Echinochloa oryzicola Vasing.) herbicidal ratio grade” value in data set [5] is recorded as 5 (Herbicidal ratio of 90% or more (almost completely withered)). For the same compound, the “C (Monochoria vaginalis) herbicidal ratio grade” value in data set [6] is 3 (Herbicidal ratio of 40% or more and less than 70%). In data set [7] (setting [9]), the “b (effect on crop grade)” value was 3 (Herbicidal ratio of 40% or more and less than 70%). The “a: transplanted Oryza sativa” value in data set [8] is recorded as 0 (Herbicidal ratio of 5% or less (almost no effect)).

As to `CC(C)c1nc2c(C(=O)Nc3nnnn3C)ccc(C(F)(F)F)n2n1` [7-002], in data set [1] (setting [9]), the “H (herbicidal effect grade)” value was 4 (Herbicidal ratio of 70% or more and less than 90%). Further, the “E (herbicidal effect grade)” value in data set [2] (setting [9]) is 4 (Herbicidal ratio of 70% or more and less than 90%). For the same compound, the “D (herbicidal effect grade)” value in data set [3] (setting [9]) was 4 (Herbicidal ratio of 70% or more and less than 90%). Besides, in data set [4], the “B (Scirpus juncoides) herbicidal ratio grade” value is 2 (Herbicidal ratio of 20% or more and less than 40%). Moreover, the “A (Echinochloa oryzicola Vasing.) herbicidal ratio grade” value in data set [5] is 4 (Herbicidal ratio of 70% or more and less than 90%). For the same compound, the “C (Monochoria vaginalis) herbicidal ratio grade” value in data set [6] was 2 (Herbicidal ratio of 20% or more and less than 40%). Also, the “b (effect on crop grade)” value in data set [7] (setting [9]) is 0 (Herbicidal ratio of 5% or less (almost no effect)). In data set [8], the “a (transplanted Oryza sativa) effect on crop grade” value is 1 (Herbicidal ratio of 5% or more and less than 20%).

Regarding `CC(C)c1nnc2c(C(=O)Nc3nnnn3C)ccc(C(F)(F)F)n12` [2-003], the “H (herbicidal effect grade)” value in data set [1] (setting [10]) was 5 (Herbicidal ratio of 90% or more (almost completely withered)). Further, the “E (herbicidal effect grade)” value in data set [2] (setting [10]) is 5 (Herbicidal ratio of 90% or more (almost completely withered)). Further, the “D (herbicidal effect grade)” value in data set [3] (setting [10]) was 5 (Herbicidal ratio of 90% or more (almost completely withered)). Further, the “B (Scirpus juncoides) herbicidal ratio grade” value in data set [4] was 3 (Herbicidal ratio of 40% or more and less than 70%). In addition, in data set [5], the “A (Echinochloa oryzicola Vasing.) herbicidal ratio grade” value was 5 (Herbicidal ratio of 90% or more (almost completely withered)). The “C (Monochoria vaginalis) herbicidal ratio grade” value in data set [6] was 4 (Herbicidal ratio of 70% or more and less than 90%). In addition, the “b (effect on crop grade)” value in data set [7] (setting [10]) is 0 (Herbicidal ratio of 5% or less (almost no effect)). Further, in data set [8], the “a: transplanted Oryza sativa” value was 4 (Herbicidal ratio of 70% or more and less than 90%).

With `COc1ccccc1-c1nnc2c(C(=O)Nc3nnnn3C)ccc(C(F)(F)F)n12` [2-045], in data set [1] (setting [9]), the “H (herbicidal effect grade)” value is listed as 5 (Herbicidal ratio of 90% or more (almost completely withered)). The “E (herbicidal effect grade)” value in data set [2] (setting [9]) is 5 (Herbicidal ratio of 90% or more (almost completely withered)). Further, in data set [3] (setting [9]), the “D (herbicidal effect grade)” value is given as 5 (Herbicidal ratio of 90% or more (almost completely withered)). For the same compound, the “B (Scirpus juncoides) herbicidal ratio grade” value in data set [4] was 3 (Herbicidal ratio of 40% or more and less than 70%). For the same compound, the “A (Echinochloa oryzicola Vasing.) herbicidal ratio grade” value in data set [5] was 5 (Herbicidal ratio of 90% or more (almost completely withered)). Besides, in data set [6], the “C (Monochoria vaginalis) herbicidal ratio grade” value is 4 (Herbicidal ratio of 70% or more and less than 90%). For the same compound, in data set [7] (setting [9]), the “b (effect on crop grade)” value is listed as 5 (Herbicidal ratio of 90% or more (almost completely withered)). For the same compound, the “a: transplanted Oryza sativa” value in data set [8] is reported as 5 (Herbicidal ratio of 90% or more (almost completely withered)).
